Literature values, collected in PubChem BioAssay AID1259409 (Chemical Carcinogenesis Research Information System (CCRIS), 2018).

Tested on: rodent chemically induced tumor inhibition, incidence and multiplicity
Assay: CCRIS tumor inhibitor studies
Conditions: for outcome: Carcinogen: NONE, Strain/Sex: APC/MIN/MALE

In the case of `NCCCC(N)(C(=O)O)C(F)F` (centres undefined), the “tumour outcome (control, treated, inhibition, significance)” value (Carcinogen: N-METHYL-N-NITROSOUREA, 684-93-5, Dose [Inhibitor]: 0.5 ML OF 2% AGENT IN 0.9% SALINE SOLUTION TWICE IN WK 1 THEN ONCE 2 HR POST CARCINOGEN TREATMENT THEN TWICE IN WK 2 (ST, Route [Inhibitor]: INTRAVESICAL, Species: RAT, Strain/Sex: F344/MALE, Target Tissue: Type of Lesion: BLADDER: CARCINOMA, Dose [Carcinogen]: 0.25 MG IN 0.5 ML OF 0.9% SALINE SOLUTION ONCE, Promoter: URINE) is listed as 31/36 (86%), 27/38 (71%), 17%, not calculated, the “tumour outcome (control, treated, inhibition, significance)” value (Carcinogen: N-METHYL-N-NITROSOUREA, 684-93-5, Dose [Inhibitor]: 2% IN URINE 2/WK FOR 30 WK BEGINNING 1 WK POST CARCINOGEN DOSE (STUDY DURATION: 35 WK), Route [Inhibitor]: INTRAVESICAL, Species: RAT, Strain/Sex: F344/MALE, Target Tissue: Type of Lesion: BLADDER: CARCINOMA, Dose [Carcinogen]: 0.25 MG IN 0.5 ML OF 0.9% SALINE SOLUTION ONCE, Promoter: URINE) is listed as 25/36 (69%), 13/35 (37%), 46%, p<0.025 and the “tumour outcome (control, treated, inhibition, significance)” value (Carcinogen: N-METHYL-N-NITROSOUREA, 684-93-5, Dose [Inhibitor]: 2% IN URINE 2/WK FOR 41 WK BEGINNING 1 WK POST CARCINOGEN DOSE (STUDY DURATION: 50 WK), Route [Inhibitor]: INTRAVESICAL, Species: RAT, Strain/Sex: F344/MALE, Target Tissue: Type of Lesion: BLADDER: CARCINOMA, Dose [Carcinogen]: 0.25 MG IN 0.5 ML OF 0.9% SALINE SOLUTION ONCE, Promoter: URINE) is listed as 31/36 (86%), 30/38 (79%), 8%, not calculated. The outcome (Dose [Inhibitor]: 0.5% IN DRINKING WATER FOR 2 MONTHS (STUDY DURATION: 2 MONTHS), Route [Inhibitor]: ORAL, Species: MOUSE, Target Tissue: Type of Lesion: DISTAL SMALL INTESTINE: TUMOR, Promoter: NONE) was 10.38, 3.67, 65%, p<0.001, the outcome (Dose [Inhibitor]: 0.5% IN DRINKING WATER FOR 2 MONTHS (STUDY DURATION: 2 MONTHS), Route [Inhibitor]: ORAL, Species: MOUSE, Target Tissue: Type of Lesion: MIDDLE SMALL INTESTINE: TUMOR, Promoter: NONE) was 23.75, 19.80, 17%, not significant and the outcome (Dose [Inhibitor]: 0.5% IN DRINKING WATER FOR 2 MONTHS (STUDY DURATION: 2 MONTHS), Route [Inhibitor]: ORAL, Species: MOUSE, Target Tissue: Type of Lesion: PROXIMAL SMALL INTESTINE: TUMOR, Promoter: NONE) was 7.63, 6.40, 16%, not significant. The outcome (Dose [Inhibitor]: 1.0% IN DRINKING WATER FOR 2 MONTHS (STUDY DURATION: 2 MONTHS), Route [Inhibitor]: ORAL, Species: MOUSE, Target Tissue: Type of Lesion: DISTAL SMALL INTESTINE: TUMOR, Promoter: NONE) was 10.38, 1.73, 83%, p<0.001, the outcome (Dose [Inhibitor]: 1.0% IN DRINKING WATER FOR 2 MONTHS (STUDY DURATION: 2 MONTHS), Route [Inhibitor]: ORAL, Species: MOUSE, Target Tissue: Type of Lesion: MIDDLE SMALL INTESTINE: TUMOR, Promoter: NONE) was 23.75, 13.80, 42%,p<0.01 and the “tumour outcome (control, treated, inhibition, significance)” value (Carcinogen: UV-A (20%), UV-B (80%) (WESTINGHOUSE FS320 SUNLAMP IN 280-400 NM), Dose [Inhibitor]: 0, 0.4% IN DRINKING WATER FOR 8 WK BEGINNING 22 WK POST CARCINOGEN FIRST DOSE (STUDY DURATION: 30 WK), Route [Inhibitor]: ORAL, Species: MOUSE, Strain/Sex: SKH:HR-1-HBR/FEMALE, Target Tissue: Type of Lesion: SKIN: TUMOR, Dose [Carcinogen]: 90 MJ/CM2 3 TIMES/WK, DOSE INCREASED BY 10% UNTIL REACHED 175 MJ/CM^2, BEGINNING 2 D POST AGENT DOSE, TREATMENT WS STOPP, Promoter: NONE) was “?/? (100%), ?/? (95%), 5%, data presented graphically, not calculated”. The “tumour outcome (control, treated, inhibition, significance)” value (Carcinogen: UV-A (20%), UV-B (80%) (WESTINGHOUSE FS320 SUNLAMP IN 280-400 NM), Dose [Inhibitor]: 0, 0.4% IN DRINKING WATER FOR 18 WK BEGINNING 12 WK POST CARCINOGEN FIRST DOSE (STUDY DURATION: 30 WK), Route [Inhibitor]: ORAL, Species: MOUSE, Strain/Sex: SKH:HR-1-HBR/FEMALE, Target Tissue: Type of Lesion: SKIN: TUMOR, Dose [Carcinogen]: 90 MJ/CM2 3 TIMES/WK, DOSE INCREASED BY 10% UNTIL REACHED 175 MJ/CM^2, BEGINNING 2 D POST AGENT DOSE, TREATMENT WS STOPP, Promoter: NONE) was “?/? (100%), ?/? (100%), 0%, data presented graphically, not calculated”, the “tumour outcome (control, treated, inhibition, significance)” value (Carcinogen: UV-A (20%), UV-B (80%) (WESTINGHOUSE FS320 SUNLAMP IN 280-400 NM), Dose [Inhibitor]: 0, 0.4% IN DRINKING WATER FOR DURATION OF STUDY (STUDY DURATION: 30 WK), Route [Inhibitor]: ORAL, Species: MOUSE, Strain/Sex: SKH:HR-1-HBR/FEMALE, Target Tissue: Type of Lesion: SKIN: TUMOR, Dose [Carcinogen]: 90 MJ/CM2 3 TIMES/WK, DOSE INCREASED BY 10% UNTIL REACHED 175 MJ/CM^2, BEGINNING 2 D POST AGENT DOSE, TREATMENT WS STOPP, Promoter: NONE) was “?/? (100%), ?/? (73%), 27%, data presented graphically, not calculated” and the “tumour outcome (control, treated, inhibition, significance)” value (Carcinogen: UVB IRRADIATION, Dose [Inhibitor]: 0, 1% IN DRINKING WATER FOR DURATION OF STUDY BEGINNING 3 WK PRIOR TO CARCINOGEN TREATMENT (STUDY DURATION: 36 WK), Route [Inhibitor]: ORAL, Species: MOUSE, Strain/Sex: BALB/FEMALE, Target Tissue: Type of Lesion: SKIN: TUMOR, Dose [Carcinogen]: 1273 KJM2 TOTAL DOSE ADMINISTERED IN 30 MIN TREATMENTS 5 D/WK, Promoter: NONE USED) was 38%, 9%, 76%, p=0.025. For the same compound, the “tumour outcome (control, treated, inhibition, significance)” value (Dose [Inhibitor]: 0, 2% IN DRINKING WATER FOR 3 WK THEN REDUCED TO 1% FOR DURATION OF STUDY (STUDY DURATION: 9 MO), Route [Inhibitor]: ORAL, Species: RAT, Strain/Sex: F344/MALE, Target Tissue: Type of Lesion: LIVER: HEPATOCELLULAR CARCINOMA, Dose [Carcinogen]: 25 UG IN 0.2 ML DMSO 5 D/WK FOR 4 WK, Promoter: NONE USED) was 40%, 16%, 60%, p<0.01 and the “tumour outcome (control, treated, inhibition, significance)” value (Dose [Inhibitor]: 0, 2% IN DRINKING WATER FOR 3 WK THEN REDUCED TO 1% FOR DURATION OF STUDY ADMINISTERED TO RATS MAINTAINED ON CHOLINE-DEF, Route [Inhibitor]: ORAL, Species: RAT, Strain/Sex: F344/MALE, Target Tissue: Type of Lesion: LIVER: HEPATOCELLULAR CARCINOMA, Dose [Carcinogen]: 25 UG IN 0.2 ML DMSO 5 D/WK FOR 4 WK, Promoter: NONE USED) was 71%, 28%, 61%, not calculated.
